Four compounds from ChEMBL document CHEMBL4184156, “Repurposing Hsp90 inhibitors as antibiotics targeting histidine kinases” (Bioorg Med Chem Lett, 2017) can be followed below.

Structures are written as SMILES. Values after ≈ are worked out from the molar mass of the structure shown. Active and inactive are the calls of the source. The calls are words filed in the database; no cut-off is given here.

The target in data set [1] is T1, Cell cycle histidine kinase CckA (Caulobacter vibrioides) (UniProt Q9X688).
T1 sequence (whole entry): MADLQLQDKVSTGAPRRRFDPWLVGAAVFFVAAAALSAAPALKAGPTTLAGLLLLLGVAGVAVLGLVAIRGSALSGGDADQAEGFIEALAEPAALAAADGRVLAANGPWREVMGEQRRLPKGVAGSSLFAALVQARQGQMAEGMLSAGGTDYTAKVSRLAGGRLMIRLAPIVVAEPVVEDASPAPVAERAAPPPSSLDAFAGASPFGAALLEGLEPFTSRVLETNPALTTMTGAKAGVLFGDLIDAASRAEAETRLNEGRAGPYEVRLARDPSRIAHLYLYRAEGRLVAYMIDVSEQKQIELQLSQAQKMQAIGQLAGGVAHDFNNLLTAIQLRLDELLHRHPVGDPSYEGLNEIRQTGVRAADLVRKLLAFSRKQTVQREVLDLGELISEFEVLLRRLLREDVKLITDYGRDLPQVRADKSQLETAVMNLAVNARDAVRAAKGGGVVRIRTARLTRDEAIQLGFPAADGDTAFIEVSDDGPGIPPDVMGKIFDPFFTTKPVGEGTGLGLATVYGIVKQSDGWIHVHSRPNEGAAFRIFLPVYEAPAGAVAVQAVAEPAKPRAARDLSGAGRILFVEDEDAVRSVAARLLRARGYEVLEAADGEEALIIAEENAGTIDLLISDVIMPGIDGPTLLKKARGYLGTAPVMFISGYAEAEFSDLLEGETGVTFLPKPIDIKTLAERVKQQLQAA
The experiment in a line: Binding affinity to recombinant Caulobacter vibrioides cell cycle histidine kinase CckA delta 3 mutant DHp domain (190 to 562 residues) expressed in Escherichia coli assessed as change in metlting temperature at 30 uM after 2 mins by SYPRO orange dye based DSF assay. On the technique in general: In DSF a fluorescence change marks the thermal transition of the protein.

For another data set, the system named is Bacillus subtilis. The experiment in a line: Antibacterial activity against Bacillus subtilis YB886 after 24 hrs by broth dilution method. The conditions noted are these: YB886, 24 h. Type of data set: functional. A general note: In broth dilution the organism is exposed to a series of concentrations in liquid medium.
The subject of a further data set is Caulobacter vibrioides. The experiment in a line: Antibacterial activity against Caulobacter crescentus NA1000 after 24 hrs by broth dilution method. Type of data set: functional. The conditions noted are these: NA1000, 24 h.
For data set [2], the target named is T2, Histidine protein kinase DivJ (Caulobacter vibrioides (strain ATCC 19089 / CB15) (Caulobactercrescentus)) (UniProt Q03228).
T2 sequence (whole entry): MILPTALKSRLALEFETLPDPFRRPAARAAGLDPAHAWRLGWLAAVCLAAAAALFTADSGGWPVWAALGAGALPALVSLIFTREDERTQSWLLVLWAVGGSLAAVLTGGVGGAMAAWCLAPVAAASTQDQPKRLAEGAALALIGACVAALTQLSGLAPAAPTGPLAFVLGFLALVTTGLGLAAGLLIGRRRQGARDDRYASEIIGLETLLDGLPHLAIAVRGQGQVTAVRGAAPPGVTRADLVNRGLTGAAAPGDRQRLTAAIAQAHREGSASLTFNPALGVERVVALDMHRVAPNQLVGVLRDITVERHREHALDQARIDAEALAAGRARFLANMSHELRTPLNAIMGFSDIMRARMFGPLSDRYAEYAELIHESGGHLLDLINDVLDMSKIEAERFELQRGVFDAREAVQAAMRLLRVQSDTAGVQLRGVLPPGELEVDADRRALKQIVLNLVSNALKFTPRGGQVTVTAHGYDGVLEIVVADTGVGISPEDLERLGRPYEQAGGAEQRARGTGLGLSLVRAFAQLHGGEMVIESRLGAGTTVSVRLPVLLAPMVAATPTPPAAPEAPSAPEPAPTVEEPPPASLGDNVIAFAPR
Put plainly: Inhibition of recombinant Caulobacter vibrioides N-terminal His6-tagged DHp-catalytic domain DivJ (188 to 585 residues) autophosphorylation expressed in Escherichia coli BL21(DE3) at 500 uM preincubated for 10 mins followed by [gamma-32P]-ATP addition after 15 mins by phosphotransferase dot blot assay relative to control. Also on record: scale not given: the % may be the effect or the level left.

Data set [3] concerns the target T3, Virulence sensor histidine kinase PhoQ (Salmonella typhimurium (strain LT2 / SGSC1412 / ATCC 700720)) (UniProt P0DM80).
T3 sequence (whole entry): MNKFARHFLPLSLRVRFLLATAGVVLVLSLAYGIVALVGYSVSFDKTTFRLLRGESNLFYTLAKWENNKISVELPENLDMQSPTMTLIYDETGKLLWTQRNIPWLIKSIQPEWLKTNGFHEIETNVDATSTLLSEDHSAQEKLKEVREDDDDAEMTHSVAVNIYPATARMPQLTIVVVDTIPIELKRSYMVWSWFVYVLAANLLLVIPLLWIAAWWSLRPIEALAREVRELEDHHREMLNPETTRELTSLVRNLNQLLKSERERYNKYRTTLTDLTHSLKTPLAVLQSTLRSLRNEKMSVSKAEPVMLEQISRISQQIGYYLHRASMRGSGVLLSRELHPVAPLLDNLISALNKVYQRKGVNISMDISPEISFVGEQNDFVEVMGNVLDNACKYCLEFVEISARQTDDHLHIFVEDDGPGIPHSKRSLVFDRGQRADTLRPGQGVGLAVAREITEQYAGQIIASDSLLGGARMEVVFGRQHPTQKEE
The experiment in a line: Inhibition of recombinant Salmonella typhimurium N-terminal His6-SUMO-tagged PhoQ (257 to 487 residues) expressed in Escherichia coli BL21 (DE3) assessed as enzyme aggregation at 400 uM after 30 mins by native-PAGE analysis. The conditions noted are these: Salmonella enterica subsp. enterica serovar Typhimurium.

For a further data set, the system named is Escherichia coli. The experiment in a line: Antibacterial activity against Escherichia coli DC2 after 24 hrs by broth dilution method. Type of data set: functional. The note with it: DC2, 24 h.
Data set [4] has as its target T3, Virulence sensor histidine kinase PhoQ (Salmonella typhimurium (strain LT2 / SGSC1412 / ATCC 700720)). The experiment in a line: Inhibition of recombinant Salmonella typhimurium N-terminal His6-SUMO-tagged DHp-catalytic domain PhoQ (257 to 487 residues) autophosphorylation expressed in Escherichia coli BL21(DE3) at 500 uM preincubated for 10 mins followed by [gamma-32P]-ATP addition after 30 mins by phosphotransferase dot blot assay relative to control. Also on record: scale not given: the % may be the effect or the level left. The conditions noted are these: Salmonella enterica subsp. enterica serovar Typhimurium.

Data set [5] relates to Histidine protein kinase DivJ (Caulobacter vibrioides). Put plainly: Inhibition of recombinant Caulobacter vibrioides N-terminal His6-tagged catalytic domain DivJ (188 to 585 residues) expressed in Escherichia coli BL21 (DE3) assessed as enzyme aggregation at 400 uM after 30 mins by native-PAGE analysis.
Data set [6] deals with T3, Virulence sensor histidine kinase PhoQ (Salmonella typhimurium (strain LT2 / SGSC1412 / ATCC 700720)). The experiment in a line: Inhibition of recombinant Salmonella typhimurium N-terminal His6-SUMO-tagged PhoQ (257 to 487 residues) expressed in Escherichia coli BL21 (DE3) assessed as enzyme aggregation at 800 uM after 30 mins by native-PAGE analysis. The conditions noted are these: Salmonella enterica subsp. enterica serovar Typhimurium.

In data set [7] the target is T2, Histidine protein kinase DivJ (Caulobacter vibrioides (strain ATCC 19089 / CB15) (Caulobactercrescentus)). The experiment in a line: Inhibition of recombinant Caulobacter vibrioides N-terminal His6-tagged DHp-catalytic domain DivJ (188 to 585 residues) expressed in Escherichia coli BL21 (DE3) at 800 uM preincubated for 10 mins followed by [gamma-32P]-ATP addition after 15 mins by phosphotransferase dot blot assay.

The target is the same in data set [8]. The experiment in a line: Inhibition of recombinant Caulobacter vibrioides N-terminal His6-tagged DHp-catalytic domain DivJ (188 to 585 residues) expressed in Escherichia coli BL21 (DE3) at 400 uM preincubated for 10 mins followed by [gamma-32P]-ATP addition after 15 mins by phosphotransferase dot blot assay.
Data set [9] deals with Staphylococcus epidermidis. The experiment in a line: Antimicrobial activity against Staphylococcus epidermidis ATCC 35984 after 10 hrs. The note with it: ATCC 35984, 10 h. The class given is functional.
The nature of data set [10]: Inhibition of recombinant full length yeast N-terminal His-tagged Hsp90 expressed in Escherichia coli BL21 incubated overnight in presence of ATP by malachite green dye based assay. Also on record: species or system Saccharomyces cerevisiae.
Data set [11] in a line: Hemolytic activity against sheep RBC at 0.5 mM after 30 mins relative to control. Type of data set: ADME, cell-based, Ovis aries, Erythrocyte. The conditions noted are these: sheep red blood cells (erythrocytes), read-out: Activity.
Data set [12] concerns the target Cell cycle histidine kinase CckA (Caulobacter vibrioides, UniProt Q9X688). The experiment in a line: Inhibition of recombinant Caulobacter vibrioides cell cycle histidine kinase CckA deltaTM mutant DHp domain (70 to 691 residues) expressed in Escherichia coli in presence of varying levels of ATP measured every 60 secs for 2 hrs by PK/LDH enzyme coupled assay.

As for `COc1ccc(-c2c(C)n[nH]c2-c2cc(Cl)c(O)cc2O)cc1`, in data set [1], the ΔTm was found to be 5 °C. The MIC against Bacillus subtilis is 150 to 225 µM (≈ 49.6 to 74.4 µg/mL); against Caulobacter vibrioides it was 225 µM (≈ 74.4 µg/mL); against Escherichia coli it was 37.5 to 75 µM (≈ 12.4 to 24.8 µg/mL). Also, the Activity in data set [2] turned out to be 118%; in [4], 66%. Moreover, the inhibition entry in data set [3] and in data set [5] was “inactive” each time.

Consider `CCc1cc(-c2[nH]nc(C)c2-c2ccc3c(c2)OCCO3)c(O)cc1O`, for which, in [1], the ΔTm was 4 °C. Moreover, the results for the MIC in the data set on Bacillus subtilis, against Caulobacter vibrioides and with Escherichia coli were 112 µM (≈ 39.6 µg/mL), 150 to 225 µM (≈ 52.9 to 79.3 µg/mL) and 37.5 to 75 µM (≈ 13.2 to 26.4 µg/mL), respectively. Further, the inhibition result in [6], in data set [3] and in data set [8] was “inactive” each time. Further, the Activity in data set [2] was 70%; in [4], 9%. Besides, in data set [7], the inhibition entry is “Active”.

Turning to `O=C(O)c1ccc(-c2ccc(/C=C3\S/C(=N\c4ccccc4)N(c4ccc(F)cc4)C3=O)s2)cc1`, the MIC in data set [9] was found to be 0.75 µg/mL (≈ 1.5 µM).

In the case of `C[C@@H]1C[C@H]2O[C@@H]2/C=C\C=C\C(=O)Cc2c(Cl)c(O)cc(O)c2C(=O)O1` [RADICICOL], the IC50 in [10] came to 0.26 µM; in [12], 184 µM. Also, the hemolysis at 0.5 h, 500 µM in data set [11] is 0%. The ΔTm in data set [1] is 0.9 °C. In addition, the MIC against Bacillus subtilis, in the data set with Caulobacter vibrioides and in the data set on Escherichia coli was > 300 µM each time. Further, the Activity in data set [2] was determined as 123%; in [4] it was 86%.

What is called ΔTm is the shift of the melting midpoint relative to a reference. For orientation: MIC means the lowest concentration that inhibits growth of the organism. A word on the IC50: it is the midpoint of a concentration-inhibition curve.
